For 5 molecules, inhibition in vivo results are on record in patent US5397774A, “Pyrazolopyrimidine and pyrimidinyl bisphosphonic esters as anti-inflammatories” (The Upjohn Company, priority 1993, dated 1995).

For orientation: inhibition in vivo means the percentage by which the read-out fell short of the control.

In this assay the test system is DTH granuloma (DTH GRA) lesion in mBSA-sensitized mice. Description: Delayed Type Hypersensitivity Granuloma Assay (DTH GRA) model for inflammation. It is filed as in vivo, mouse. The settings on record: 216 h, Table 2, Formula 2 compounds, 10 mg/kg PO, mouse DTH granuloma excised after nine days. The procedure:
This assay is described by Dunn, C.
Briefly, mBSA-sensitized mice have a DTH granuloma (DTH GRA) lesion induced by subcutaneously implanting a mBSA-soaked filter which is excised after nine days. Compounds are administered to the mice to determine their effect on the lesions. The results are recorded as percent inhibition. […] Inhibition of 10 to 20% is considered to indicate anti-granuloma activity.
Again, as in Table 1, the results are recorded as percent inhibition. […] Inhibition of 10 to 20% is considered to indicate anti-granuloma activity. […]

Structures are written as SMILES.

As for `CCOP(=O)(OCC)C(CCc1nc(-c2ccccc2)cc(=O)n1Cc1ccccc1)P(=O)(OCC)OCC` [r, (3-(2-(3-Benzyl-4-oxo-6-phenyl-4(3H)-pyrimidinyl))-propylidine)bisphosphonic acid tetraethyl ester], the inhibition in vivo at 10 mg/kg (Mus musculus, po) is 17%.
Same read-out and setting: in the case of `COP(=O)(OC)C(CCc1nc(-c2ccccc2)cc(=O)n1C)P(=O)(OC)OC` [z, (3-(2-(3-Methyl-4-oxo-6-phenyl-4(3H)-pyrimidinyl))-propylidine)bisphosphonic acid tetramethyl ester] it was 36%; in that of `CCOP(=O)(OCC)C(CCc1nc(-c2ccccc2)cc(=O)n1C)P(=O)(OCC)OCC` [p, (3-(2-(3-Methyl-4-oxo-6-phenyl-4(3H)-pyrimidinyl))-propylidine)bisphosphonic acid tetraethyl ester], 60%.
Consider `Cn1c(CCC(P2(=O)OCC(C)(C)CO2)P2(=O)OCC(C)(C)CO2)nc(-c2cc(F)c(N3CCCCC3)c(F)c2F)cc1=O` [mm, (3-(2-(3-Methyl-4-oxo-6-(2,3,5-trifluoro-4-piperidinophenyl)-4(3H)-pyrimidinyl))-propylidine)bis(5,5-dimethyl-2,2'-dioxide-1,3,2-dioxaphosphorinane)], for which the inhibition in vivo at 10 mg/kg turned out to be 50%.
Regarding `CCOP(=O)(OCC)C(CCc1nc(-c2ccccc2)c(Br)c(=O)n1C)P(=O)(OCC)OCC` [y, (3-(2-(3-Methyl-4-oxo-5-bromo-6-phenyl-4(3H)-pyrimidinyl))-propylidine)bisphosphonic acid tetraethyl ester], for the setting “Mus musculus, po”, the inhibition in vivo at 10 mg/kg worked out at 7%.
